Assay results from patent US20080300298A1, “Honokiol Derivates For the Treatment of Proliferative Disorders” (priority 2005, published 2008).

Tests used:
[1] = system: JNK in CH12.LX cells; assay: JNK phosphorylation (Western blotting); assay type: cell-based, mouse; conditions: CH12.LX cells transfected with hCD40-LMP1
Text: The cells were pelleted by centrifugation, lysed and analyzed by SDS PAGE and Western blotting. Peroxidase-labeled antibodies were visualized on Western blots using a chemilluminescent detection reagent to assay for JNK phosphorylation.

[2] = system: H1299 cells; assay: Invasion assay (Matrigel); assay type: cell-based, human
Procedure: (A) RAW 264.7 cells (1×10^4) were plated overnight, pretreated with 5 mM honokiol for 12 h, and then treated with 5 nM RANKL. At 4 and 5 days later, cells were stained for TRAP and evaluated for osteoclastogenesis. Photographs were taken after 5 days of incubation with RANKL. (B) The numbers of TRAP-positive multinucleated osteoclasts (>3 nuclei) per well were counted. (C) H1299 cells (2.5×10^4) were seeded into the upper wells of a Matrigel invasion chamber overnight in the absence of serum, pretreated with […] honokiol for 12 h, treated with 1 nM TNF for 24 h in the presence of 1% serum, and then subjected to invasion assay. The value for no honokiol and no TNF was set to 1.0.
Invasion assay. The membrane invasion culture system was used to assess cell invasion because invasion through the extracellular matrix is a crucial step in tumor metastasis. […] The cells that invaded through the Matrigel (i.e., those that migrated to the lower chamber during incubation) were stained with […] calcein-AM (Molecular Probes) in PBS for 30 min at 37° C. and scanned for fluorescence with a Victor 3 multi-plate reader (Perkin Elmer Life and Analytical Sciences, Boston, Mass.); fluorescent cells were counted. […]

[3] = system: glioblastoma multiforme cell lines, U343 and T98G; assay: MTT proliferation assay; assay type: cell-based; conditions: 10-70 μM, 24 hours
Procedure: (§1) Cell lines: All cell lines were obtained from American Type Culture Collection. The breast cancer cell lines used: MCF-7 and BT-474 cells were grown in DMEM medium containing 10% FCS; MDA-MB-231, SK-BR-3, MDA-MB-436 and T47-D cells were grown in RPMI medium containing 10% FCS. The glioblastoma multiforme cell lines (U343 and T98G) were maintained in DMEM modified medium containing 10% FCS.
(§2) 3-(4,5-dimethylthiazol-2-yl)-2,5-diphenyltetrazolium bromide (MTT) proliferation assays: 3×10^3 cells/well were plated in 96-well plates, cultured in the appropriate culture media containing 10% FCS, and treated with either control vehicle or various concentrations of HNK, alone or with a secondary drug, as indicated. All secondary drugs were freshly diluted in growth media and immediately added to cells along with the HNK. After 24 hours of incubation at 37° C., 5% CO2, the cells were cultured for four hours with 10% MTT reagent (5 mg/ml; Sigma-Aldrich, St. Louis, Mo.). The medium was aspirated, and the cells were dissolved by dimethyl sulfoxide (DMSO). Absorbance of the formazan product was measured by an enzyme-linked immunosorbent assay reader (Macintosh).
(§3) HNK inhibits growth of breast cancer cells. Breast cancer cells were treated with different concentrations of HNK for 24 hours, and MTT assays were conducted to assess viability. The selected cell lines have different phenotypes and different expression patterns of the estrogen receptor (ER), Her2 and p53, and thus represent various subclasses of breast cancer. […] Similar analyses were also conducted for two glioblastoma multiforme cell lines, U343 and T98G. Over the same dose-range (10-70 μM), both cell lines were resistant to HNK (FIGS. 34 A, B).

[4] = system: BT-474 cells; assay: MTT proliferation assay; assay type: cell-based; conditions: Homo sapiens, BT-474, 24 h, read-out: concentration that reduced viability by 50% (LC50)
Procedure: as §1, §2, §3

[5] = system: SKBR-3 cell; assay: MTT proliferation assay; assay type: cell-based; conditions: Homo sapiens, SK-BR-3, 24 h, read-out: concentration that reduced viability by 50% (LC50)
Procedure: as §1, §2, §3

[6] = system: HIF-1a in PC3 cells; assay: HIF-1a induction; assay type: cell-based, human; conditions: normoxia or hypoxia
Procedure: Bharti, A. C. et al (2004) Blood 103, 3175-3184; Arbiser, J. L et al (1998) Mol. Med. 4, 376-383; Woods, A. et al (2003) Current Biology 13, 2004-2008; Shaw, R. J. et al (2004) PNAS 101, 3329-3335; Buzzai, M. et al (2005) Oncogene 24, 4165-4173). […] PC3 cells were treated with honokiol in normoxia (left) or hypoxia (right). In both cases, HIF-1a induction is dose dependent, and in the case of hypoxia, at least additive.

## C=CCc1ccc(O)c(-c2ccc(O)c(CC=C)c2)c1 [HNK, Honokiol]
[1]
  JNK phosphorylation: inhibited by honokiol in a dose dependent manner
[2]; H1299, 10 mM (printed) honokiol 12 h, 1 nM TNF 24 h
  TNF-induced tumor cell invasion: suppressed this activity
[2]; H1299, no TNF
  invasion activity of honokiol alone: had no invasion activity
[3]
  viability of glioblastoma multiforme cell lines: resistant
[4]
  CC50: 50 µM
[5]
  CC50: 29 µM
[6]
  HIF-1a induction: activated HIF-1a in prostate cancer cells in a dose dependent manner
